Experimental data taken from PubChem BioAssay (NCI).
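Cells were grown in 96-well plates and exposed to each compound for 48 hours at five concentrations; endpoints were interpolated linearly between bracketing concentrations, or set to the highest concentration if not reached. GI50 = concentration required for 50% inhibition of growth. TGI: total growth inhibition.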

Legend:
Assay in all cases: inhibition of tumour cell growth, NCI panel, 48 h
[1] = system: CCRF-CEM leukemia
[2] = system: HCC-2998 colon
[3] = system: A498 renal
[4] = system: EKVX NSCLC
[5] = system: HL-60(TB) leukemia
[6] = system: UO-31 renal
[7] = system: MOLT-4 leukemia
[8] = system: HS 578T breast
[9] = system: NCI/ADR-RES ovarian
[10] = system: BT-549 breast

SMILES | TGI [1] [µM] | TGI [2] [µM] | TGI [3] [µM] | TGI [4] [µM] | TGI [5] [µM] | TGI [6] [µM] | TGI [7] [µM] | GI50 [8] [µM] | TGI [8] [µM] | GI50 [9] [µM] | TGI [9] [µM] | GI50 [1] [µM] | GI50 [2] [µM] | GI50 [3] [µM] | GI50 [5] [µM] | GI50 [10] [µM] | TGI [10] [µM] | GI50 [6] [µM] | GI50 [7] [µM] | GI50 [4] [µM]
N#CC1C2CCC3(CC2CCN1C(=O)c1ccccc1)OCCO3 (configuration not stated) | > 100 | > 100 | > 100 | > 100 | > 100 | > 100 | > 100 | – | – | – | – | – | – | – | – | – | – | – | – | –
O=C(Nc1cccc(-n2cc(-c3ccncc3)c(-c3ccc(O)c(Cl)c3)n2)c1)Nc1cccc(C(F)(F)F)c1 | 7.92 | 37.5 | 8.99 | – | 7.49 | 7.05 | 4.94 | 1.51 | 7.08 | 3.24 | > 100 | 2.12 | 4.3 | 1.9 | 2.83 | 1.72 | 4.08 | 2.01 | 1.68 | –
CN1CCN(c2ccc(C(=O)Nc3cc(-c4cccc(NS(=O)(=O)c5ccccc5)c4)[nH]n3)cc2)CC1 | 42.3 | 24.3 | 9.75 | – | 16.1 | 27.8 | 12.5 | 1.7 | 10.4 | > 100 | > 100 | 3.28 | 11.2 | 0.505 | 3.94 | 9.38 | 26.3 | 6.26 | 3 | –
O=[N+]([O-])c1ccc(Cl)cc1N/N=C/c1cccc2cccnc12 | > 100 | > 100 | – | > 100 | > 100 | > 100 | > 100 | – | > 100 | – | > 100 | – | – | – | – | – | > 100 | – | – | –
C=C1C(=O)OC2CC(C)C3C=CC(=O)C3CC12 (configuration not stated) | 5.14 | 16.5 | 24.3 | 26.3 | 4.95 | 8.41 | 4.68 | – | 6.53 | – | – | – | – | – | – | – | 9.94 | – | – | –
Cn1cnc([N+](=O)[O-])c1Sc1nnnn1-c1ccccc1 | 7.12 | 32.5 | 38.9 | 29.6 | – | 27.9 | 6.22 | – | – | – | – | – | – | – | – | – | – | – | – | –
N#C/C(=C\c1ccc(C(O)P(=O)(O)O)cc1)C(N)=O (configuration not stated) | > 100 | > 100 | > 100 | > 100 | > 100 | > 100 | > 100 | – | – | – | – | – | – | – | – | – | – | – | – | –
O=C1CCS/C(=N\S(=O)(=O)c2ccc(N3N=C4c5ccccc5CC4C3c3cccs3)cc2)N1C(=O)c1ccccc1 (configuration not stated) | 42.7 | 32.1 | – | > 100 | – | > 100 | 77.9 | 2.85 | 34.2 | 32.9 | > 100 | 15 | 18.2 | – | – | 4.77 | > 100 | 30.7 | 5.04 | 22.1
CC1C(=O)O[C@H]2C1CC[C@@]1(C)[C@H](O)CC[C@@]13C[C@]2(O)OO3 (some centres not stated) | > 100 | > 100 | > 100 | – | > 100 | > 100 | > 100 | – | – | – | – | – | – | – | – | – | – | – | – | –
C1COCCOCCOCCOCCO1.CC(=O)[CH-]C(C)=O.CC(=O)[CH-]C(C)=O.CC(=O)[CH-]C(C)=O.[V] | 41.3 | 40.1 | 66.3 | – | 42.2 | 61.4 | 41.4 | – | – | – | – | 19.1 | 19.6 | 25 | 20.1 | – | – | 32.5 | 20.6 | –
COc1cc(/C=C(\OC(C)=O)c2ccc3c(c2)OCO3)cc(OC)c1OC | > 100 | > 100 | 71.4 | 54.9 | > 100 | 28.2 | 43.4 | – | – | – | – | – | > 100 | – | – | – | – | – | – | –
Cc1ccc(Oc2ccc([N+](=O)[O-])cc2[N+](=O)[O-])c(C)c1 | > 100 | > 100 | > 100 | > 100 | 65.2 | > 100 | 79.4 | – | – | – | – | – | – | – | – | – | – | – | – | –
CCOC(=O)/C(=C\c1ccc[nH]1)C(=O)c1ccccc1 | > 100 | > 100 | – | > 100 | > 100 | > 100 | > 100 | – | – | – | – | – | – | – | – | – | – | – | – | –
CC(C)C(=O)/C=C/c1ccc(Cl)c(Cl)c1 | 81.7 | 33.2 | 62.1 | 51.4 | 47 | 27.2 | > 100 | – | – | – | – | – | – | – | – | – | – | – | – | –
NC(=O)c1ccc2nc3c(n2c1)C(=O)C(=O)c1ccccc1-3 | 5.42 | 3.13 | 3.14 | 3.01 | 5.18 | 2.79 | 4.21 | – | – | 1.88 | 6.19 | 0.931 | 1.6 | 1.73 | 2.12 | 1.36 | 2.65 | 1.47 | 1.02 | 1.65
Cc1nc(C(N)=S)sc1C(=O)C/C(=N/N)C(=O)Nc1ccc(Cl)cc1 | – | > 100 | – | > 100 | – | > 100 | > 100 | – | > 100 | – | > 100 | – | – | – | – | – | > 100 | – | – | –
CCOC(=O)CSc1[nH]c(NC(=S)Nc2ccccc2)c(C(N)=O)c1C(N)=O | > 10 | > 10 | – | > 10 | 4.78 | – | > 10 | – | – | – | – | – | – | – | – | – | – | – | – | –
O=C1CS/C(=N\S(=O)(=O)c2ccc(N3N=C4c5ccccc5CC4C3c3ccc(Cl)cc3)cc2)N1c1ccccc1 (configuration not stated) | 58.3 | – | 53 | > 100 | 48.7 | > 100 | 40.7 | 29.4 | 87.4 | – | – | 13.7 | – | 25.6 | 23.1 | 35.6 | > 100 | 29.1 | 17.2 | 43.2
NC(CC1=CCC=CC1)C(=O)O (configuration not stated) | > 100 | > 100 | > 100 | > 100 | – | > 100 | > 100 | – | > 100 | – | – | – | – | – | – | – | > 100 | – | – | –
CSc1ncnc2c1CCN2 | – | > 100 | – | > 100 | – | > 100 | – | – | – | – | – | – | > 100 | – | – | – | – | – | – | > 100
CC1(O)CCC2(C#N)CCC1C2O (configuration not stated) | > 100 | > 100 | > 100 | > 100 | > 100 | > 100 | > 100 | – | – | – | – | – | – | – | – | – | – | – | – | –
